From patent US9629843B2, “MTOR modulators and uses thereof” (The Regents of the University of California, priority 2008, dated 2017)

Experiments:
p190 transduced cells [1] = assay: Combination with imatinib on p190 transduced cells (MTS, combination index); type: cell-based, murine
p190 transduced cells [2] = assay: MTS viability assay of p190 transduced cells; type: cell-based, murine
[3] = system: p190 BCR-Abl transformed bone marrow cells; assay: Colony forming assay with p190 BCR-Abl transformed murine bone marrow cells; type: cell-based; conditions: compared to rapamycin; FIG. 17
[4] = system: Akt phosphorylation (S473, T308) in L6 myotubes; assay: Akt phosphorylation in insulin stimulated L6 myotubes (immunoblot); type: cell-based; conditions: 100 nM insulin, FIG. 3
Method: L6 myoblasts were grown typically grown in DMEM supplemented with about 10% FBS, glutamine and penicillin/streptomycin. Confluent L6 myoblasts were differentiated into mytubes by culturing them for approximately 5 days in media containing about 2% FBS. L6 myotubes were maintained in media containing approximately 2% FBS until use.
In order to compare the effect of TORKinibs and PIK-90 on Akt phosphorylation, L6 myotubes were serum starved overnight and incubated with inhibitors or about 0.1% DMSO for approximately 30 minutes prior to stimulation with insulin (e.g. 100 nM) for about 10 minutes. Cells were lysed by scraping into ice cold lysis buffer (generally: 300 mM NaCl, 50 mM Tris pH 7.5, 5 mM EDTA, 1% TRITON™ X-100, 0.02% NaN3, 20 nM microcystin, Sigma phosphatase inhibitor cocktails 1 and 2, Roche protease inhibitor cocktail and 2 mM PMSF). After contacting cells with lysis buffer, the solution was briefly sonicated. Lysates were cleared by centrifugation, resolved by SDS-PAGE, transferred to nitrocellulose and immunoblotted using antibodies to phospho-Akt S473, phospho-Akt T308, Akt, and β-actin (Cell Signaling Technologies).

PKCα = molecular target: T1, PKCα (Homo sapiens, UniProt P17252); assay: Kinase inhibition assay, PKCα; type: biochemical; conditions: at about 1 μM or less
T1 construct: Purified kinase domains (e.g. mTor, P110α, P110β, P110γ, P110δ, PI4Kβ, DNA-PK, PKCα, PKCβ1, PKCβII, RET, and JAK2)

[5] = system: S6K, S6, 4EBP1 phosphorylation in L6 myotubes; assay: Phosphorylation of S6K, S6 and 4EBP1 in insulin stimulated L6 myotubes; type: cell-based
[6] = system: Akt phosphorylation (S473, T308) in MEFs; assay: Akt phosphorylation in wild-type and SIN1−/− mouse embryonic fibroblasts (immunoblot); type: cell-based; conditions: SIN1−/− MEFs
Method: Wild-type and SIN1−/− primary mouse embryonic fibroblasts (MEFs) were grown in DMEM supplemented with about 10% FBS, glutamine and penicillin/streptomycin. MEFs were treated with TORKinib at about 2.5, 0.63, and 0.16 uM; rapamycin at approximately 15 nM; or PIK-90 at 625 nM for 30 minutes prior to insulin stimulation (e.g. 100 nM) for 10 minutes. Cells were lysed by scraping into ice cold lysis buffer (typically 300 mM NaCl, 50 mM Tris pH 7.5, 5 mM EDTA, 1% TRITON™ X-100, 0.02% NaN3, 20 nM microcystin, Sigma phosphatase inhibitor cocktails 1 and 2, Roche protease inhibitor cocktail and 2 mM PMSF). After contacting cells with lysis buffer, the solution was briefly sonicated. Lysates were cleared by centrifugation, resolved by SDS-PAGE, transferred to nitrocellulose and immunoblotted using antibodies to phospho-Akt S473, phospho-Akt T308, Akt, and β-actin (Cell Signaling Technologies).

[7] = system: Akt substrates (GSK3, TSC2, FoxO1/O3a) in L6 myotubes; assay: Phosphorylation of Akt substrates in insulin stimulated L6 myotubes; type: cell-based; conditions: FIG. 6
PI3K β = molecular target: T2, PI3K β (Homo sapiens, UniProt P42338); assay: Kinase inhibition assay, PI3K β; type: biochemical
T2 construct: Purified kinase domains (e.g. mTor, P110α, P110β, P110γ, P110δ, PI4Kβ, DNA-PK, PKCα, PKCβ1, PKCβII, RET, and JAK2)
T2 sequence (P42338 772-1053 limits assumed): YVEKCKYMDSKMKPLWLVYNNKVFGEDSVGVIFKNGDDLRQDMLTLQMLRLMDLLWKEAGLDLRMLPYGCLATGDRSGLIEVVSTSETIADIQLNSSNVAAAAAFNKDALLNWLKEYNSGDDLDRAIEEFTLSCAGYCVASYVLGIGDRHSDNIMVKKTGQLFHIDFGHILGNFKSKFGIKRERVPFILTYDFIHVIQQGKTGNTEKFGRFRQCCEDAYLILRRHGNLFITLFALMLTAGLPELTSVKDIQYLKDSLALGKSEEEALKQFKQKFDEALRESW
T2 sequence (P27986 whole entry partner, the tested form may be a part): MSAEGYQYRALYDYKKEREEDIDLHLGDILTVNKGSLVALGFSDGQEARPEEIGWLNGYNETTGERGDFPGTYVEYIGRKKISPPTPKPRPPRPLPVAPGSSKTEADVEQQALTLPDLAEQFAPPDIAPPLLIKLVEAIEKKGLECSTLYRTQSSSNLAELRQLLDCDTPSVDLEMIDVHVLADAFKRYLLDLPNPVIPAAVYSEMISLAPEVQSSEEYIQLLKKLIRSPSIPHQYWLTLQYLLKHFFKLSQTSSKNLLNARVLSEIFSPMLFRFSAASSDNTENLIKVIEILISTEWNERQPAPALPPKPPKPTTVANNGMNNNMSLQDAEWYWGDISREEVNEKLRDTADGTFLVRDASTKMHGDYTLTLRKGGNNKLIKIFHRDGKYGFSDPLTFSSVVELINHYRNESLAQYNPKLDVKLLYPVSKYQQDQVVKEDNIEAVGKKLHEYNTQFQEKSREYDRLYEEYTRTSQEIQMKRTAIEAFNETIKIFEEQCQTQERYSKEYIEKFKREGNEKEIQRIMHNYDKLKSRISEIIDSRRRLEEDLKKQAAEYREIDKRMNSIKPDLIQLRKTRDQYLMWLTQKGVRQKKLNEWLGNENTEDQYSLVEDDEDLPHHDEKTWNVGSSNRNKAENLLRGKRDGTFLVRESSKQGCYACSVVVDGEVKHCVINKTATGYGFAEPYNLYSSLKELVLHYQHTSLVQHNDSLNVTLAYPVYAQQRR

PC3 cells = assay: Inhibition of proliferation of PC3 cells; type: cell-based; conditions: Homo sapiens, PC-3
PI3K γ = molecular target: T3, PI3K γ (Homo sapiens, UniProt P48736); assay: Kinase inhibition assay, PI3K γ; type: biochemical
T3 construct: Purified kinase domains (e.g. mTor, P110α, P110β, P110γ, P110δ, PI4Kβ, DNA-PK, PKCα, PKCβ1, PKCβII, RET, and JAK2)
T3 sequence (P48736 797-1080 limits assumed): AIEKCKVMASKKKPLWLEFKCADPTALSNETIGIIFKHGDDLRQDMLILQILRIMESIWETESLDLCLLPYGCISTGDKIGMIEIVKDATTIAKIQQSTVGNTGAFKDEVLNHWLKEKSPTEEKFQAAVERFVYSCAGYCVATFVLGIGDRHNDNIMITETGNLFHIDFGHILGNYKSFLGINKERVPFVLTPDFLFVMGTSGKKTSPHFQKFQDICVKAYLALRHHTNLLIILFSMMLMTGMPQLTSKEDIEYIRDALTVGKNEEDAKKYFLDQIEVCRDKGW

PI3K δ = molecular target: T4, PI3K δ (Homo sapiens, UniProt O00329); assay: Kinase inhibition assay, PI3K δ; type: biochemical
T4 construct: Purified kinase domains (e.g. mTor, P110α, P110β, P110γ, P110δ, PI4Kβ, DNA-PK, PKCα, PKCβ1, PKCβII, RET, and JAK2)
T4 sequence (O00329 745-1027 limits assumed): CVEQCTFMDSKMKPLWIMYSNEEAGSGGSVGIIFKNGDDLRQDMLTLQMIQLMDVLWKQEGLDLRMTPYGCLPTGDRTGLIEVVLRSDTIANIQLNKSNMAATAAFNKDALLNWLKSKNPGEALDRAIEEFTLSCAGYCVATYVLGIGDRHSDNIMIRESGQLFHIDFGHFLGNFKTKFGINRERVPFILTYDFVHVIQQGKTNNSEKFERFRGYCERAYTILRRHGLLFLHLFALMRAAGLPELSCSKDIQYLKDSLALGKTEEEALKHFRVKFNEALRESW
T4 sequence (P27986 whole entry partner, the tested form may be a part): as the sequence (P27986 whole entry partner, the tested form may be a part) above

mTor = molecular target: T5, mTor (Homo sapiens, UniProt P42345); assay: Kinase inhibition assay, mTor; type: biochemical
T5 construct: Purified kinase domains (e.g. mTor, P110α, P110β, P110γ, P110δ, PI4Kβ, DNA-PK, PKCα, PKCβ1, PKCβII, RET, and JAK2)
T5 sequence (P42345 2156-2469 limits assumed): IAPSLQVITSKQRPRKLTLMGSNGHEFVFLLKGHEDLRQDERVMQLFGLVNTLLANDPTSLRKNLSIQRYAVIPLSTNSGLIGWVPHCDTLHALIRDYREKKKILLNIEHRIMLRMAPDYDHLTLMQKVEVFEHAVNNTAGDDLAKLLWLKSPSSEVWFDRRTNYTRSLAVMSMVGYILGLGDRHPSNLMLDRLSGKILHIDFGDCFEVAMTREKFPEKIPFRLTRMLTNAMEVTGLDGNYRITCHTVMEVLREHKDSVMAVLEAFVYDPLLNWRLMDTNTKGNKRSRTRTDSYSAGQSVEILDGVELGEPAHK

PI3K α = molecular target: T6, PI3K α (Homo sapiens, UniProt P42336); assay: Kinase inhibition assay, PI3K α; type: biochemical
T6 construct: Purified kinase domains (e.g. mTor, P110α, P110β, P110γ, P110δ, PI4Kβ, DNA-PK, PKCα, PKCβ1, PKCβII, RET, and JAK2)
T6 sequence (P42336 765-1051 limits assumed): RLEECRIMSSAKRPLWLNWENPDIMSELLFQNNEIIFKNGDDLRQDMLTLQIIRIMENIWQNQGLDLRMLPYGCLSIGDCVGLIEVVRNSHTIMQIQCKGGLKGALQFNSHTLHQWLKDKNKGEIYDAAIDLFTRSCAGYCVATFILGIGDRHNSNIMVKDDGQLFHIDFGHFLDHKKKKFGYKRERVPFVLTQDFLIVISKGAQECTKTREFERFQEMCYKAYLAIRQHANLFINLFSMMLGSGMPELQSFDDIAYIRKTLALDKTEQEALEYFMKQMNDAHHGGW
T6 sequence (P27986 whole entry partner, the tested form may be a part): as the sequence (P27986 whole entry partner, the tested form may be a part) above

p190 leukemic cells = assay: Syngenic mouse leukemia transplant model (p190); type: in vivo, Balb/c mice; conditions: for number of cycling leukemic blasts / apoptosis of leukemic blast cells: bone marrow and spleen; for number of cycling leukemic blasts: FIG. 23; for apoptosis of leukemic blast cells: FIG. 24
Method: The murine bone marrow infection/transplantation method was used to determine the effect of kinase inhibitors on disregulated cellular proliferation […]. The MSCV-p190-BCR-Abl-Ires-GFP (MIG-p190) or MSCV-p190-BCR-Abl-Ires-hCD4Δtail (MIC-p190) retroviral vectors were assembled in 293T cells and used to transduce bone marrow cells. The GFP and CD4Δtail markers allow quantitation by FACS analysis and/or enrichment by magnetic sorting of transduced cells.
These cells were administered together with a radioprotective dose of about 5×10^6 normal bone marrow cells from 3-5 week old donor Balb/c mice. […] Mice who became sick after about 14 days were euthanized and lymphoid organs were harvested for analysis. Kinase inhibitor treatment began about 10 days after leukemic cell injection and continued daily until the mice became sick or a maximum of approximately 35 days post-transplant. Inhibitors were given by oral lavage.
Peripheral blood cells were collected approximately on day 10 (pre-treatment) and upon euthanization (post treatment), contacted with labeled anti-hCD4 antibodies and counted by flow cytometry.
Mice were injected with the BrdU analogue EdU and sacrificed. Bone marrow and spleen were collected, blast cells were harvested from the tissue, and stained with antibodies to hCD4, and analyzed by flow cytomtery.
Bone marrow and spleen were collected, blast cells were harvested from the tissue, and stained with antibodies to hCD4, Annexin V, and 7AAD, and analyzed by flow cytometry. […] The results also show significant increase at the concentrations examined in induction of apoptosis at the concentrations examined of imatinib in combination with rapamycin or PI-103.

[8] = system: CD19+ CD34+ B cell progenitors from Ph+ and Ph− patients; assay: Colony forming assay with human B-ALL cells; type: cell-based; conditions: about 50 nM dasatinib; FIG. 18
[9] = system: myristolated-Akt transgenic thymocytes tumors; assay: Akt murine allograft tumor model; type: in vivo, NOD/SCID mice; conditions: after 20 days of treatment
Ph− B-ALL = assay: Colony assay using Ph− B-ALL specimens; type: cell-based, Human; conditions: expected
[10] = system: cap-dependent translation; assay: Cap-dependent translation, m7GTP affinity, p190 cells; type: cell-based; conditions: IM at 5 μM; FIG. 38D
AML = assay: Colony assay using AML specimens; type: cell-based, Human; conditions: expected
Method: Human Ph− B-ALL and AML specimens are obtained. Ph− B-ALL and AML are cytogenetically diverse, with diverse therapeutic regimens currently in use depending on patient risk factors. The majority of Ph− B-ALL patients are treated initially with a combination of three drugs: glucocorticoid (e.g. dexamethasone), vincristine, and asparaginase or anthracycline (e.g. daunorubicin). Most AML patients receive an anthracycline only. Pilot experiments with 3 patient samples are conducted to determine concentrations of vincristine (Ph− ALL) or daunorubicin (AML) that partially reduce colony formation in methylcellulose. It is expected that these drugs are effective in the range of 0.1-1 μM (vincristine) and 3-30 nM (daunorubicin). Optionally, the Ph-ALL assays may be supplemented with dexamethasone and/or daunorubicin.

[11] = system: ENaC-dependent Na+ current; assay: ENaC-dependent Na+ transport in mpkCCD cells; conditions: prolonged treatment (>24 h)

Cn1c(=O)n(-c2ccc(C(C)(C)C#N)cc2)c2c3cc(-c4cnc5ccccc5c4)ccc3ncc21 [BEZ235]
synergy with imatinib (combination index) (p190 transduced cells [1]; over a broad dose range, FIG. 16): moderate to strong synergy | IC50 (p190 transduced cells [2]; Mus musculus, stated as treatment concentration = IC50): ~5 nM | colony forming activity in combination with imatinib [3]: potentiate the effects of a half maximal concentration of imatinib

CC(C)n1nc(-c2cccc(C(=O)NC3=NCCS3)c2)c2c(N)ncnc21 [PP30]
insulin stimulated phosphorylation of Akt at S473 and T308 [4]: inhibit insulin stimulated phosphorylation of Akt at S473 | inhibition of PKCα (PKCα): does not inhibit PKCα significantly | phosphorylation of 4EBP1 at T37/46 [5]: able to inhibit

COc1ccc2c(c1OC)N=C(NC(=O)c1cccnc1)N1CCN=C21 [PIK-90, reference compound]
insulin stimulated phosphorylation of Akt at S473 and T308 [4]: inhibit the phosphorylation of both Akt sites equipotently | phosphorylation of Akt T308 [6]: blocks phosphorylation of T308 | phosphorylation of Akt and its substrates [7]: completely inhibited | phosphorylation of 4EBP1 at T37/46 [5]: does not reduce

CC(C)n1nc(-c2cc3cccc(O)c3[nH]2)c2c(N)ncnc21
IC50 (PI3K β): 3580 nM | IC50 (PC3 cells): 38 nM | IC50 (PI3K γ): 450 nM | IC50 (PI3K δ): 330 nM | IC50 (mTor): 0.7 nM | IC50 (PI3K α): 3460 nM

Oc1cccc(-c2nc(N3CCOCC3)c3oc4ncccc4c3n2)c1 [PI-103]
number of cycling leukemic blasts (p190 leukemic cells): significantly reduced the number of cycling leukemic blasts | apoptosis of leukemic blast cells (p190 leukemic cells): induction of apoptosis in leukemic blast cells | effect on anti-proliferative effects of imatinib (p190 transduced cells [1]; 48 hrs MTS, FIG. 19): potentiate the anti-proliferative effects of imatinib | combination index with imatinib (p190 transduced cells [1]; over a broad dose range, FIG. 20): more synergistic than rapamycin | colony formation in combination with dasatinib [8]: stronger effect of dasatinib-PI-103 combination as compared to dasatinib-rapamycin combination

CO[C@H]1C[C@@H]2CC[C@@H](C)[C@@](O)(O2)C(=O)C(=O)N2CCCC[C@H]2C(=O)O[C@H]([C@H](C)C[C@@H]2CC[C@@H](O)[C@H](OC)C2)CC(=O)[C@H](C)/C=C(\C)[C@@H](O)[C@@H](OC)C(=O)[C@H](C)C[C@H](C)/C=C/C=C/C=C/1C [rapamycin, reference compound]
body weight [9]: maintained body weight

CC[C@]1(O)C[C@H]2CN(CCc3c([nH]c4ccccc34)[C@@](C(=O)OC)(c3cc4c(cc3OC)N(C=O)[C@H]3[C@@](O)(C(=O)OC)[C@H](OC(C)=O)[C@]5(CC)C=CCN6CC[C@]43[C@@H]65)C2)C1 [vincristine, reference compound]
effective range, partial reduction of colony formation (Ph− B-ALL): 0.1 to 1 µM

CC(C)n1nc(-c2cc3ccccc3[nH]2)c2c(N)ncnc21
IC50 (PC3 cells): 2060 nM | IC50 (mTor): 79 nM | IC50 (PI3K α): 11200 nM

Cc1ccc(NC(=O)c2ccc(CN3CCN(C)CC3)cc2)cc1Nc1nccc(-c2cccnc2)n1 [imatinib]
cap-dependent translation [10]: inhibit cap-dependent translation | number of cycling leukemic blasts (p190 leukemic cells): significantly reduced the number of cycling leukemic blasts | apoptosis of leukemic blast cells (p190 leukemic cells): induction of apoptosis in leukemic blast cells | splenomegaly (p190 leukemic cells; oral lavage daily, FIG. 21): significant decrease in splenomegaly

COc1cccc2c1C(=O)c1c(O)c3c(c(O)c1C2=O)C[C@@](O)(C(C)=O)C[C@@H]3O[C@H]1C[C@H](N)[C@H](O)[C@H](C)O1 [daunorubicin]
effective range, partial reduction of colony formation (AML): 3 to 30 nM

O=c1cc(N2CCOCC2)oc2c(-c3ccccc3)cccc12 [LY294002, reference compound]
toxic effect of prolonged treatment [11]: diminishes electrical resistance and causes morphological changes

CC(=O)N1CCC(n2nc(-c3cc4cc(O)ccc4[nH]3)c3c(N)ncnc32)CC1
IC50 (PI3K β): 25000 nM | IC50 (PC3 cells): 11800 nM | IC50 (PI3K δ): 9800 nM | IC50 (mTor): 14 nM | IC50 (PI3K α): 5750 nM

Cc1ccccc1-n1c(Cn2cnc3c(N)ncnc32)nc2cccc(C)c2c1=O [IC87114]
type of effect on cell viability (p190 transduced cells [2]; plateau at high concentrations, 48 hrs): primarily cytostatic

CC(C)n1nc(-c2cc3ccc(O)cc3[nH]2)c2c(N)ncnc21
IC50 (PI3K β): 2160 nM | IC50 (PC3 cells): 1000 nM | IC50 (PI3K γ): 115 nM | IC50 (PI3K δ): 395 nM | IC50 (mTor): 26 nM | IC50 (PI3K α): 279 nM
